The values that follow come from ChEMBL document CHEMBL4373740, “Synthesis and biological evaluation of new MET inhibitors with 1,6-naphthyridinone scaffold” (Eur J Med Chem, 2020).

One series in a line: in vitro. The note with it: human, liver microsomes.
Series [1] in a line: Clearance in Sprague-Dawley rat at 5.0 mg/kg, ig measured for 15 min to 72 hrs by LC-MS/MS analysis. Type of series: ADME, organism-based. The settings on record: in vivo, po.
Series [2] addresses Serine/threonine-protein kinase PLK1 (Homo sapiens) (UniProt P53350). Description: Inhibition of recombinant full length human His-tagged PLK1 expressed in baculovirus expression system at 1 uM using biotin as substrate preincubated for 5 mins followed by substrate addition and measured after 30 to 60 mins in presence of ATP by HTRF assay relative to control. (In general: TR-FRET usually uses a lanthanide donor and a delayed reading to cut background.)

Series [3] concerns the target Tyrosine-protein kinase receptor UFO (Homo sapiens, UniProt P30530). Description: Inhibition of recombinant […] human N-terminal GST-tagged AXL (473 to end residues) expressed in baculovirus infected Sf21 insect cells using biotin as substrate preincubated for 5 mins followed by substrate addition and measured after 30 to 60 mins in presence of ATP by HTRF assay.

Series [4] concerns the target Tyrosine-protein kinase Mer (Homo sapiens, UniProt Q12866). Kind of series: Inhibition of recombinant human GST-tagged cMER (578 to 872 residues) expressed in baculovirus infected Sf21 insect cells using biotin as substrate preincubated for 5 mins followed by substrate addition and measured after 30 to 60 mins in presence of ATP by HTRF assay.
Series [5] has as its target ALK tyrosine kinase receptor (Homo sapiens) (UniProt Q9UM73). Kind of series: Inhibition of human GST-tagged ALK cytoplasmic domain (1060 to end residues) expressed in sf9 cells at 1 uM using biotin as substrate preincubated for 5 mins followed by substrate addition and measured after 30 to 60 mins in presence of ATP by HTRF assay relative to control.
Series [6] addresses Vascular endothelial growth factor receptor 3 (Homo sapiens, UniProt P35916). Kind of series: Inhibition of recombinant human GST-tagged FLT4 catalytic domain (800 to 1297 residues) expressed in baculovirus expression system at 1 uM using biotin as substrate preincubated for 5 mins followed by substrate addition and measured after 30 to 60 mins in presence of ATP by HTRF assay relative to control.

Series [7] has as its target Dual specificity tyrosine-phosphorylation-regulated kinase 3 (Homo sapiens) (UniProt O43781). Description: Inhibition of recombinant human GST-tagged DYRK3 expressed in baculovirus system at 1 uM using biotin as substrate preincubated for 5 mins followed by substrate addition and measured after 30 to 60 mins in presence of ATP by HTRF assay relative to control.
In series [8] the target is Insulin-like growth factor 1 receptor (Homo sapiens) (UniProt P08069). Kind of series: Inhibition of recombinant full length human His-tagged IGF1R expressed in baculovirus expression system at 1 uM using biotin as substrate preincubated for 5 mins followed by substrate addition and measured after 30 to 60 mins in presence of ATP by HTRF assay relative to control.
The target in series [9] is Tyrosine-protein kinase Fes/Fps (Homo sapiens) (UniProt P07332). Description: Inhibition of recombinant human His-tagged FES expressed in baculovirus system at 1 uM using biotin as substrate preincubated for 5 mins followed by substrate addition and measured after 30 to 60 mins in presence of ATP by HTRF assay relative to control.
Series [10] deals with Vascular endothelial growth factor receptor 1 (Homo sapiens) (UniProt P17948). Description: Inhibition of recombinant human GST-tagged FLT1 catalytic domain (781 to 1338 residues) expressed in baculovirus expression system at 1 uM using biotin as substrate preincubated for 5 mins followed by substrate addition and measured after 30 to 60 mins in presence of ATP by HTRF assay relative to control.

The target of series [11] is T1, Angiopoietin-1 receptor (Homo sapiens, UniProt Q02763). Description: Inhibition of recombinant human GST-tagged TEK (817 to 1101 residues) expressed in baculovirus expression system using biotin as substrate preincubated for 5 mins followed by substrate addition and measured after 30 to 60 mins in presence of ATP by HTRF assay.
A short description of series [12]: Volume of distribution in Sprague-Dawley rat at 1.0 mg/kg, iv measured for 5 min to 72 hrs by LC-MS/MS analysis. In kind it is ADME, organism-based. The note with it: in vivo.
Series [13] has as its target Serine/threonine-protein kinase B-raf (Homo sapiens) (UniProt P15056). Description: Inhibition of recombinant full length human GST-tagged BRAF expressed in baculovirus expression system at 1 uM using biotin as substrate preincubated for 5 mins followed by substrate addition and measured after 30 to 60 mins in presence of ATP by HTRF assay relative to control.
Series [14] addresses Tyrosine-protein kinase Lyn (Homo sapiens) (UniProt P07948). Description: Inhibition of recombinant human N-terminal GST-tagged LYN A expressed in insect cells at 1 uM using biotin as substrate preincubated for 5 mins followed by substrate addition and measured after 30 to 60 mins in presence of ATP by HTRF assay relative to control.
The target of series [15] is High affinity nerve growth factor receptor (Homo sapiens, UniProt P04629). Description: Inhibition of recombinant human His-tagged TRKA catalytic domain (441 to 796 residues) expressed in baculovirus expression system using biotin as substrate preincubated for 5 mins followed by substrate addition and measured after 30 to 60 mins in presence of ATP by HTRF assay.
Series [16] concerns the target Epidermal growth factor receptor (Homo sapiens) (UniProt P00533). Kind of series: Inhibition of recombinant human GST-tagged EGFR (668 to 1210 residues) expressed in baculovirus expression system at 1 uM using biotin as substrate preincubated for 5 mins followed by substrate addition and measured after 30 to 60 mins in presence of ATP by HTRF assay relative to control.

The nature of series [17]: Half life in Sprague-Dawley rat at 5.0 mg/kg, ig measured for 15 min to 72 hrs by LC-MS/MS analysis. In kind it is ADME, organism-based. The settings on record: in vivo, po.
In series [18] the target is Dual specificity tyrosine-phosphorylation-regulated kinase 4 (Homo sapiens) (UniProt Q9NR20). Kind of series: Inhibition of recombinant human GST-tagged DYRK4 expressed in baculovirus system at 1 uM using biotin as substrate preincubated for 5 mins followed by substrate addition and measured after 30 to 60 mins in presence of ATP by HTRF assay relative to control.
Series [19] deals with BDNF/NT-3 growth factors receptor (Homo sapiens, UniProt Q16620). Description: Inhibition of recombinant human His-tagged TRKB catalytic domain (526 to 838 residues) expressed in baculovirus expression system at 1 uM using biotin as substrate preincubated for 5 mins followed by substrate addition and measured after 30 to 60 mins in presence of ATP by HTRF assay relative to control.

For series [20], the target named is T1, Angiopoietin-1 receptor. Description: Inhibition of recombinant human GST-tagged TEK (817 to 1101 residues) expressed in baculovirus expression system at 1 uM using biotin as substrate preincubated for 5 mins followed by substrate addition and measured after 30 to 60 mins in presence of ATP by HTRF assay relative to control.
The target of series [21] is Macrophage-stimulating protein receptor (Homo sapiens, UniProt Q04912). Description: Inhibition of recombinant human GST-tagged RON expressed in baculovirus system using biotin as substrate preincubated for 5 mins followed by substrate addition and measured after 30 to 60 mins in presence of ATP by HTRF assay.
Series [22] is described as follows: Tmax in Sprague-Dawley rat at 5.0 mg/kg, ig measured for 15 min to 72 hrs by LC-MS/MS analysis. In kind it is ADME, organism-based. The settings on record: in vivo, po.

T1 sequence (Q02763 whole entry, the tested form may be a part): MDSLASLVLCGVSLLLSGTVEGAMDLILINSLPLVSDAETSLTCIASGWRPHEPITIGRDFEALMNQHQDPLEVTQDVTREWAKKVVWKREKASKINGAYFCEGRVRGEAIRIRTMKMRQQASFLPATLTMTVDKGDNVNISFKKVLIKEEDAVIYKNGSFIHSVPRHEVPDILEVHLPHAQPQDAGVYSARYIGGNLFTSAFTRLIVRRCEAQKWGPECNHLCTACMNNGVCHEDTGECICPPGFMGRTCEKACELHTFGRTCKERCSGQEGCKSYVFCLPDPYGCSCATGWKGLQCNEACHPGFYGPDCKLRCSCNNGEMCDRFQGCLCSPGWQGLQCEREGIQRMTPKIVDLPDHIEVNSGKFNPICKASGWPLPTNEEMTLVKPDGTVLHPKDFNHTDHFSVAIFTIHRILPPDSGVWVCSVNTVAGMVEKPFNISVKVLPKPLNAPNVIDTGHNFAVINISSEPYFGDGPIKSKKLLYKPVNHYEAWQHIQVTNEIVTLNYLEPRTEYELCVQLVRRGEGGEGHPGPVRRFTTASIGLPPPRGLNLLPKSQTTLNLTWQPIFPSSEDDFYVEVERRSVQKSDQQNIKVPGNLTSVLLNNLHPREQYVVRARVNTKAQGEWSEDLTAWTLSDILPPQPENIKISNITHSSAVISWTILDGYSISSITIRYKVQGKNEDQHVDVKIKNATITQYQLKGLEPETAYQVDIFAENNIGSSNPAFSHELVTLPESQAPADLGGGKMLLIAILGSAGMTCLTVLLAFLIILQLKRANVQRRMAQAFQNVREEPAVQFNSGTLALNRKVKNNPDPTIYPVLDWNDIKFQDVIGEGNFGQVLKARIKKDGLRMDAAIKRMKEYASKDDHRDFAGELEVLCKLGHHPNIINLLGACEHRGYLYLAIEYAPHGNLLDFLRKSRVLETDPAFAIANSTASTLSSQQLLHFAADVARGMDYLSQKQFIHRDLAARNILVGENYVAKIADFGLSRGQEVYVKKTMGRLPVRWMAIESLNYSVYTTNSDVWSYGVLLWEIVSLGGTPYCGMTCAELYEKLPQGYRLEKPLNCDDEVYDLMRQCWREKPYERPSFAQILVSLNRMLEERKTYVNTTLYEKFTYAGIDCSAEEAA
High affinity nerve growth factor receptor, sequence (P04629 whole entry, the tested form may be a part): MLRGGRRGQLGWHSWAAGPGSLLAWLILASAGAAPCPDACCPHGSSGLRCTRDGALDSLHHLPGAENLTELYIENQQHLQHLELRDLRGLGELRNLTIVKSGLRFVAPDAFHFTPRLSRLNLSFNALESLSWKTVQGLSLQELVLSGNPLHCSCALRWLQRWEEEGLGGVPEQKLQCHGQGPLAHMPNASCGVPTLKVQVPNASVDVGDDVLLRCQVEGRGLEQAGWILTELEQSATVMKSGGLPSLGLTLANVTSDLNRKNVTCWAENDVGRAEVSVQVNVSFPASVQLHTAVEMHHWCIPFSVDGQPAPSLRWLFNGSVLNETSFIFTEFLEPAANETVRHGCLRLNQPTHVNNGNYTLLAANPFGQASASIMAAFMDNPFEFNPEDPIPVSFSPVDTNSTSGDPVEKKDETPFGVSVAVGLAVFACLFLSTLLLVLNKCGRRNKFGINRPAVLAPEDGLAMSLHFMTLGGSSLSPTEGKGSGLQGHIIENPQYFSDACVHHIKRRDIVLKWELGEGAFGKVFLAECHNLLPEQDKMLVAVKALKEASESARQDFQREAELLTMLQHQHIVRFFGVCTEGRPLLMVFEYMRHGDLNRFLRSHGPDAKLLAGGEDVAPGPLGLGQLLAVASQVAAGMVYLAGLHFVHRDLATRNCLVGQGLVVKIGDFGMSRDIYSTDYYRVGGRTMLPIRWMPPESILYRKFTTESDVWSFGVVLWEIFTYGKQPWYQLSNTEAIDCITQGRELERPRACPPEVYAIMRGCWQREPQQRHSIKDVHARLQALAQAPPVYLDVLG
Insulin-like growth factor 1 receptor (Homo sapiens), sequence (P08069 31-736 limits assumed): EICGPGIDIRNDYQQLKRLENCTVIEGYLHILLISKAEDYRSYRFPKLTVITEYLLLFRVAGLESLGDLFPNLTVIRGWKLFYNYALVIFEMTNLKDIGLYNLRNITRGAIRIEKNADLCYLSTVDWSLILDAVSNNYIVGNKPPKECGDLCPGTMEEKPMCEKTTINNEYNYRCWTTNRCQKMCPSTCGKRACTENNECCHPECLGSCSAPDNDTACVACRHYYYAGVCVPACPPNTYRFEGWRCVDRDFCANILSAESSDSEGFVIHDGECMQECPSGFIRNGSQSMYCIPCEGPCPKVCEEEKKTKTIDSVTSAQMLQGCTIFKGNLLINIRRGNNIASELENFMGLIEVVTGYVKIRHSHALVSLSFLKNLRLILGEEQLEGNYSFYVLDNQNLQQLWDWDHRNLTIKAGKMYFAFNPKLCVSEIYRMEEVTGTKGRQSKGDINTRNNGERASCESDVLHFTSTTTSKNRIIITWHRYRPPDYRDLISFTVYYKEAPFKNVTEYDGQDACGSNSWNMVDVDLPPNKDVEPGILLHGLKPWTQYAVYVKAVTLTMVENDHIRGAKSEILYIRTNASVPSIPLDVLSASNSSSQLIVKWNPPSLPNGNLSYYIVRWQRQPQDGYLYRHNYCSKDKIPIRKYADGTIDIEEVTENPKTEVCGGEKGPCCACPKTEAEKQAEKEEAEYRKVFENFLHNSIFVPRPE
Insulin-like growth factor 1 receptor (Homo sapiens), sequence (P08069 741-1367 limits assumed): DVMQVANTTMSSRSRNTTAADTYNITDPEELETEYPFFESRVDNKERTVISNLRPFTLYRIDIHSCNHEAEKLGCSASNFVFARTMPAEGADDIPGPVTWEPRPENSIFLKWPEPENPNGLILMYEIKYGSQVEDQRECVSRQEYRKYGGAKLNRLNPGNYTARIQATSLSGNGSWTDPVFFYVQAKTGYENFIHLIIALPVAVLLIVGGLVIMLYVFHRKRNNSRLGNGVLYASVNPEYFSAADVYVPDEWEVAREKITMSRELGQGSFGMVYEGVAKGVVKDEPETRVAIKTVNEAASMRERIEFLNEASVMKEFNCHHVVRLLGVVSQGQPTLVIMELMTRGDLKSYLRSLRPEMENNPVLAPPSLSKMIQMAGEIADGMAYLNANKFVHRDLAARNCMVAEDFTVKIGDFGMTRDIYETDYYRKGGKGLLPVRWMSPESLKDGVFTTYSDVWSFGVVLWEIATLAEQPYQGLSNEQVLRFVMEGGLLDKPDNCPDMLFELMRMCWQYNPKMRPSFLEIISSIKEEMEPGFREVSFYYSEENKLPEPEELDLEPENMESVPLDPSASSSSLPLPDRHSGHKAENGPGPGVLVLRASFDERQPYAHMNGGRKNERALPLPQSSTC
Tyrosine-protein kinase Lyn (Homo sapiens), sequence (P07948 2-512 limits assumed): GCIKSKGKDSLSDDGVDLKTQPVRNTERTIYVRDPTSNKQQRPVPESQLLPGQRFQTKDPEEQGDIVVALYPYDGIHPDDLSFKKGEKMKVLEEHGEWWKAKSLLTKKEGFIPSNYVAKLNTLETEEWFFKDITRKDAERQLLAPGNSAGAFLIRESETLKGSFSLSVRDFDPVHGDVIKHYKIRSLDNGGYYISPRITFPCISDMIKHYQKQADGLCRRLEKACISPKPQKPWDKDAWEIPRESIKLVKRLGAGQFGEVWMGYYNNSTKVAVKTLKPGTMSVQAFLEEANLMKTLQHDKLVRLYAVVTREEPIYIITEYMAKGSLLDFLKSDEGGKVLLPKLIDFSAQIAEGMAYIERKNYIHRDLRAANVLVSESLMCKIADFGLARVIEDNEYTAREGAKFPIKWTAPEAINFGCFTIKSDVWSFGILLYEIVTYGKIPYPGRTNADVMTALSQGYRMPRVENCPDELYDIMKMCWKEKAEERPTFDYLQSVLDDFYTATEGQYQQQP
Vascular endothelial growth factor receptor 1 (Homo sapiens), sequence (P17948 whole entry, the tested form may be a part): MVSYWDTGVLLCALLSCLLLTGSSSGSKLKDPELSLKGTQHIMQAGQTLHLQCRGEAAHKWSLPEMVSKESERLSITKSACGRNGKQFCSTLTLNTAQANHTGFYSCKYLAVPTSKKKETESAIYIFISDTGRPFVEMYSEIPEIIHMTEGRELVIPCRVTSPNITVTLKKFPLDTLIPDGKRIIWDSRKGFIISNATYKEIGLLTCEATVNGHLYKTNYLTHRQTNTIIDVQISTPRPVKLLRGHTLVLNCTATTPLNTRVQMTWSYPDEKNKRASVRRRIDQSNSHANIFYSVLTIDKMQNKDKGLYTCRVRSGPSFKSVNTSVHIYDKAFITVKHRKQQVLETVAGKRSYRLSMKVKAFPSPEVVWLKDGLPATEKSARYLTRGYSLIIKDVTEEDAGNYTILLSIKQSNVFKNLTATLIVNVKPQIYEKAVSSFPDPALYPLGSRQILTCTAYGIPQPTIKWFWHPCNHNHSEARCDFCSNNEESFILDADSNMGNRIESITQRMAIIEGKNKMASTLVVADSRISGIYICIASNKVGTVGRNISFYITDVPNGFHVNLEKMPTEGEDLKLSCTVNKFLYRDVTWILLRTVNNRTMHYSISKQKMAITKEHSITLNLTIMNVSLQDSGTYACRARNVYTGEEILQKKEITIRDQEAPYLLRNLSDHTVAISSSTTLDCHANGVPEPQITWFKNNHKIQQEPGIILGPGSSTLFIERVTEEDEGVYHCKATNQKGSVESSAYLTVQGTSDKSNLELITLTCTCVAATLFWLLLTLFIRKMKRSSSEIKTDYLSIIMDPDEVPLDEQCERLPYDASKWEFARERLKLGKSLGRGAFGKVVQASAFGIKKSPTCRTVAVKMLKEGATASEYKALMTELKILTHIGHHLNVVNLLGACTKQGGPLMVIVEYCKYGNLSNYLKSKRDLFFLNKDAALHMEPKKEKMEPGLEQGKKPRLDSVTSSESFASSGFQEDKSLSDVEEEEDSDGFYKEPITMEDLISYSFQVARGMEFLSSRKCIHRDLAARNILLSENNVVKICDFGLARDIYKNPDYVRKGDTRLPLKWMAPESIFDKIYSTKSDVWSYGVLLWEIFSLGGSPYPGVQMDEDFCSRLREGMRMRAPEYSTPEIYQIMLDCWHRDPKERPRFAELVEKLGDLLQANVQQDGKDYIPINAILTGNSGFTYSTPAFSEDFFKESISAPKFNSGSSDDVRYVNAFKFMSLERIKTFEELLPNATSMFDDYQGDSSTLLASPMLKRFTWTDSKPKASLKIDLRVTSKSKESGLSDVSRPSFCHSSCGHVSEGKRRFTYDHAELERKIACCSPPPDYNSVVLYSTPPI

For `Cn1cc(-c2ccc(F)cc2)c(=O)c2c(Nc3ccc(Oc4ccnc(NC(=O)C5CC5)c4)c(F)c3)nccc21`, the half-life was 14.7 h in the series “in vitro” and 20.6 h in series [17]. Moreover, the CL/F in series [1] was 0.333 mL/min/kg. Further, the inhibition in series [2], in series [5], in [6], in series [7], in series [8] and in series [9] was below 50% each time. The inhibition in series [10] is below 50%; in series [13] it was below 50%; in series [14] it was below 50%; in series [16], below 50%; in series [18], below 50%; in series [19] it was above 80%. In addition, on Angiopoietin-1 receptor [20], the inhibition was 50 to 79%. The IC50 in series [3] amounted to 8.2 nM; in series [4], 4.2 nM; at Angiopoietin-1 receptor [11], 26.3 nM; in series [15], 32.9 nM; in [21], 346 nM. This compound also gave a Vd in [12] of 0.4 L/kg. Besides, in series [22], the time of peak concentration (Tmax) came out at 8.7 h.

As usually defined, the half-life is how long it takes for the measured level to halve. High values mean slow loss, low ones fast loss. The term CL/F denotes clearance divided by bioavailability, as obtained after extravascular dosing. In general, inhibition refers to how much of the control response was suppressed. As usually defined, the IC50 is the midpoint of a concentration-inhibition curve. Broadly, the Vd is the apparent volume that relates the amount in the body to the concentration in plasma or blood. Lower therefore signals little distribution into tissue. The Tmax is the time at which the peak concentration occurs.
